Test results reported in article PMC10862539, “Chelation of Mitochondrial Iron as an Antiparasitic Strategy” (ACS Infectious Diseases, 2024).
Where “and” joins values, the source holds several entries; their conditions need not be identical. Equal entries are not always repeated.

Columns and labels:
[1] = system: Babesia gibsoni; parameters: method as in PMID 18771856; conditions: B. gibsoni; ref [40]; cited from earlier work
[2] = system: Candida albicans; experiment: C. albicans hyphae formation (phase contrast microscopy); type: cell-based; conditions: 3.6 and 7.2 μM mitoDFO for 24 h
Description: The yeast form of C. albicans was seeded in the 2 mL RPMI medium on a 24 well plate with a glass bottom and treated with MitoDFO in concentrations of 0, 3.6, and 7.2 μM. The culture was incubated at 35 °C for 24 h, and microscopic images were taken using phase contrast on an inverted microscope Eclipse TI-S (Nikon).

[3] = target: isolated mitochondria of T. brucei 427; experiment: Mitochondrial membrane intactness in isolated mitochondria (threonine dehydrogenase marker); parameters: species or system Trypanosoma brucei; conditions: threonine dehydrogenase activity as marker, read-out: 50% membrane intactness (inner membrane permeability increased by 50%)
Description: Mitochondrial intactness was assessed by isolating the mitochondrial fraction of untreated cells, as described above, without the addition of Triton X-100 and adding different concentrations of mitoDFO. Threonine dehydrogenase activity was measured as a marker of the disintegration of mitochondrial membranes. Triton X-100 was used to disrupt membrane integrity and served as a positive control to obtain maximum activity. All experiments were performed in at least three biologically independent replicates and plotted and analyzed using Prism 8.0 (GraphPad Software).

[4] = system: Human fibroblast BJ1; parameters: method as in C. Sandoval-Acuña et al.[25]; conditions: ref C. Sandoval-Acuña et al.[25], read-out: control EC50; cited from earlier work
[5] = system: Cryptococcus neoformans; experiment: C. neoformans capsule size (India ink microscopy); type: cell-based; conditions: 20 μM mitoDFO for 24 h; 31 cells
Description: C. neoformans capsule thickness was measured using a previously published protocol.[33] Briefly, the yeast was seeded in 1 mL of RPMI in a 24 well plate with and without a final concentration of 20 μM mitoDFO for 24 h at 35 °C. The culture was harvested (1300 g, 5 min, RT) and resuspended in 50 μL of RPMI. An equal amount of India Ink (Thermo-Fisher) was added, and a total volume of 15 μL of resuspended cells was placed on a microscope slide, covered with cover glass, and imaged on an Eclipse TI-S (Nikon) inverted microscope using 100× magnification. A total of 31 cells were randomly selected, excluding morphologically anomalous and overlapping cells. Using NIS Elements BR (Nikon), the inner and outer diameters of each cell were measured, and cell size and capsule thickness were calculated. Graphs were plotted, and an unpaired t-test was performed using Prism 8.0 (GraphPad Software).

In the case of CC(=O)N(O)CCCCCNC(=O)CCC(=O)N(O)CCCCCNC(=O)CCC(=O)N(O)CCCCCN [DFO, Deferoxamine, reference compound], the EC50 [1] is listed as 6.45 ± 3.43 µM.
In the case of CC(=O)N(O)CCCCCNC(=O)CCC(=O)N(O)CCCCCNC(=O)CCC(=O)N(O)CCCCCN(CCCCCCCCCC[P+](c1ccccc1)(c1ccccc1)c1ccccc1)CCCCCCCCCC[P+](c1ccccc1)(c1ccccc1)c1ccccc1 [mitoDFO], the “hyphal growth of Candida albicans culture” value [2] is listed as “absence of hyphal growth”, the EC50 [3] is listed as 63.2 µM and 63 µM and the EC50 [4] is listed as 7.9 ± 3.9 µM. For the same compound, the capsule thickness [5] was “increases significantly” and the overall cell size [5] was “remains the same”.
